Measured values published in ChEMBL document CHEMBL5046300, “Potent Bactericidal Antimycobacterials Targeting the Chaperone ClpC1 Based on the Depsipeptide Natural Products Ecumicin and Ohmyungsamycin A” (2022).
Values after ≈ are worked out from the molar mass of the structure shown. Active and inactive are the calls of the source. No cut-off for these calls is given here. *1 amine or outer side, *2 acyl side, *3 side chain or, on linkers, in order; H or OH if unused. Where a SMILES comes first, the peptide text is derived from it. Bridges are numbered along the chain shown (N, C = ends). [ ]: non-standard residue; d: D form. The star is where a group is joined. Phe(3R-OH) = O=C([C@@H](N[*:1])[C@H](O[*:3])c1ccccc1)[*:2]; NMeTrp(4-OMe) = CN[C@@H](Cc1c[nH]c2cccc(OC)c12)C(=O)O; NMeW = CN[C@@H](Cc1c[nH]c2ccccc12)C(=O)O; NMe2Val = CC(C)[C@@H](C(=O)*)N(C)C; NMeT = CN[C@H](C(=O)O)[C@@H](C)O; NMeL = CN[C@@H](CC(C)C)C(=O)O; NMeNle = CCCC[C@H](NC)C(=O)O; NMeDap = CN[C@@H](CN)C(=O)O; NMeV = CN[C@H](C(=O)O)C(C)C; Pip = O=C(O)[C@@H]1CCCCN1

How the values were obtained:
[1] = test system: Mycobacterium tuberculosis; test: Antimycobacterial activity against Mycobacterium tuberculosis mc2 6230 measured after 7 days; format: functional; details: mc2 6230, 168 h, time 7 day
[2] = test system: Mycobacterium tuberculosis; test: Antimycobacterial activity against Mycobacterium tuberculosis mc2 6230 assessed as log reduction in bacteria measured up to 21 days by Time kill assay; format: functional, organism-based; details: time day <=21
Escherichia coli = test: Antibacterial activity against Escherichia coli K-12 MG1655 assessed as bacterial growth inhibition incubated for 18 to 20 hrs by broth microdilution method; format: functional; details: time 18-20 hrs
Klebsiella aerogenes = test: Antibacterial activity against Klebsiella aerogenes ATCC 35029 assessed as bacterial growth inhibition incubated for 18 to 20 hrs by broth microdilution method; format: functional; details: time 18-20 hrs
Klebsiella pneumoniae = test: Antibacterial activity against Klebsiella pneumoniae ATCC 700603 assessed as bacterial growth inhibition incubated for 18 to 20 hrs by broth microdilution method; format: functional; details: time 18-20 hrs
[3] = test system: Providencia alcalifaciens; test: Antibacterial activity against Providencia alcalifaciens ATCC 9886 assessed as bacterial growth inhibition incubated for 18 to 20 hrs by broth microdilution method; format: functional; details: time 18-20 hrs
Salmonella enterica = test: Antibacterial activity against Salmonella enterica ATCC 13311 assessed as bacterial growth inhibition incubated for 18 to 20 hrs by broth microdilution method; format: functional; details: time 18-20 hrs
Shigella sonnei = test: Antibacterial activity against Shigella sonnei ATCC 25931 assessed as bacterial growth inhibition incubated for 18 to 20 hrs by broth microdilution method; format: functional; details: time 18-20 hrs
[4] = test system: Yersinia pseudotuberculosis; test: Antibacterial activity against Yersinia pseudotuberculosis ATCC 6904 assessed as bacterial growth inhibition incubated for 18 to 20 hrs by broth microdilution method; format: functional; details: time 18-20 hrs
Acinetobacter baumannii = test: Antibacterial activity against Acinetobacter baumannii ATCC 19606 assessed as bacterial growth inhibition incubated for 18 to 20 hrs by broth microdilution method; format: functional; details: time 18-20 hrs
Pseudomonas aeruginosa = test: Antibacterial activity against Pseudomonas aeruginosa ATCC 27853 assessed as bacterial growth inhibition incubated for 18 to 20 hrs by broth microdilution method; format: functional; details: time 18-20 hrs
Vibrio cholerae = test: Antibacterial activity against Vibrio cholerae A1552 El Tor assessed as bacterial growth inhibition incubated for 18 to 20 hrs by broth microdilution method; format: functional; details: time 18-20 hrs
Brucella anthropi = test: Antibacterial activity against Ochrobactrum anthropi ATCC 49687 assessed as bacterial growth inhibition incubated for 18 to 20 hrs by broth microdilution method; format: functional; details: time 18-20 hrs
Bacillus subtilis = test: Antibacterial activity against Bacillus subtilis ATCC 6051 assessed as bacterial growth inhibition incubated for 18 to 20 hrs by broth microdilution method; format: functional; details: time 18-20 hrs
Listeria ivanovii = test: Antibacterial activity against Listeria ivanovii BAA-139 assessed as bacterial growth inhibition incubated for 18 to 20 hrs by broth microdilution method; format: functional; details: time 18-20 hrs
Staphylococcus aureus [5] = test: Antibacterial activity against methicillin-sensitive Staphylococcus aureus ATCC 29213 assessed as bacterial growth inhibition incubated for 18 to 20 hrs by broth microdilution method; format: functional; details: time 18-20 hrs
Staphylococcus aureus [6] = test: Antibacterial activity against methicillin-resistant Staphylococcus aureus BAA-44 assessed as bacterial growth inhibition incubated for 18 to 20 hrs by broth microdilution method; format: functional; details: time 18-20 hrs
[7] = test system: Staphylococcus epidermidis; test: Antibacterial activity against Staphylococcus epidermidis ATCC 14990 assessed as bacterial growth inhibition incubated for 18 to 20 hrs by broth microdilution method; format: functional; details: time 18-20 hrs
Enterococcus faecium = test: Antibacterial activity against Enterococcus faecium ATCC 6569 assessed as bacterial growth inhibition incubated for 18 to 20 hrs by broth microdilution method; format: functional; details: time 18-20 hrs
Enterococcus faecalis = test: Antibacterial activity against Enterococcus faecalis ATCC 29212 assessed as bacterial growth inhibition incubated for 18 to 20 hrs by broth microdilution method; format: functional; details: time 18-20 hrs
Streptococcus pneumoniae = test: Antibacterial activity against Streptococcus pneumoniae ATCC 49619 assessed as bacterial growth inhibition incubated for 18 to 20 hrs by broth microdilution method; format: functional; details: time 18-20 hrs

## CCCC[C@H]1C(=O)N(C)[C@@H](Cc2c[nH]c3ccccc23)C(=O)N[C@@H](C(C)C)C(=O)N[C@@H](Cc2ccccc2)C(=O)N[C@@H](C(C)C)C(=O)O[C@H](C)[C@H](NC(=O)[C@@H](NC(=O)[C@@H](NC)C(C)C)C(C)C)C(=O)N(C)[C@@H]([C@@H](C)O)C(=O)N[C@@H](C(C)C)C(=O)N(C)[C@@H](CC(C)C)C(=O)N[C@@H](C(C)C)C(=O)N1C (H-[NMeV]VT[NMeT]V[NMeL]V[NMeNle][NMeW]VFV; ester 3-C)
[1]
  MIC: 0.5 µM (≈ 0.713 µg/mL)

## CN[C@H](C(=O)N[C@H](C(=O)N[C@@H]1C(=O)N(C)[C@@H]([C@@H](C)O)C(=O)N[C@@H](C(C)C)C(=O)N(C)[C@@H](CC(C)C)C(=O)N[C@@H](C(C)C)C(=O)N(C)[C@@H](CC(C)C)C(=O)N(C)[C@@H](Cc2c[nH]c3ccccc23)C(=O)N[C@@H](C(C)C)C(=O)N[C@@H](Cc2ccccc2)C(=O)N[C@@H](C(C)C)C(=O)O[C@@H]1C)C(C)C)C(C)C (H-[NMeV]VT[NMeT]V[NMeL]V[NMeL][NMeW]VFV; ester 3-C)
[1]
  MIC: 0.25 µM (≈ 0.357 µg/mL)
[2]
  Activity: Active

## COc1cccc2[nH]cc(C[C@H]3C(=O)N[C@@H](C(C)C)C(=O)N[C@@H]([C@H](O)c4ccccc4)C(=O)N[C@@H](C(C)C)C(=O)O[C@H](C)[C@H](NC(=O)[C@@H](NC(=O)[C@H](C(C)C)N(C)C)C(C)C)C(=O)N(C)[C@@H]([C@@H](C)O)C(=O)N[C@@H](C(C)C)C(=O)N(C)[C@@H](CC(C)C)C(=O)N[C@@H](C(C)C)C(=O)N(C)[C@@H](C(C)C)C(=O)N3C)c12 (NMe2Val-VT[NMeT]V[NMeL]V[NMeV][NMeTrp(4-OMe)]V[Phe(3R-OH)]V; ester 2-C)
[1]
  MIC: 0.5 µM (≈ 0.736 µg/mL)

## CN[C@H](C(=O)N[C@H](C(=O)N[C@@H]1C(=O)N(C)[C@@H]([C@@H](C)O)C(=O)N[C@@H](C(C)C)C(=O)N(C)[C@@H](CC(C)C)C(=O)N[C@@H](C(C)C)C(=O)N(C)[C@@H](Cc2c[nH]c3ccccc23)C(=O)N(C)[C@@H](Cc2c[nH]c3ccccc23)C(=O)N[C@@H](C(C)C)C(=O)N[C@@H](Cc2ccccc2)C(=O)N[C@@H](C(C)C)C(=O)O[C@@H]1C)C(C)C)C(C)C (H-[NMeV]VT[NMeT]V[NMeL]V[NMeW][NMeW]VFV; ester 3-C)
[1]
  MIC: 0.5 µM (≈ 0.75 µg/mL)

## CN[C@@H]1[C@H](O[C@H]2[C@H](O[C@H]3[C@H](O)[C@@H](O)[C@H](N=C(N)N)[C@@H](O)[C@@H]3N=C(N)N)O[C@@H](C)[C@]2(O)C=O)O[C@@H](CO)[C@H](O)[C@H]1O [STREPTOMYCIN]
Escherichia coli
  MIC: 0.25 µM (≈ 0.145 µg/mL)
Klebsiella aerogenes
  MIC: 0.25 µM (≈ 0.145 µg/mL)
Klebsiella pneumoniae
  MIC: 0.17 µM (≈ 0.0989 µg/mL)
[3]
  MIC: 9.3 µM (≈ 5.41 µg/mL)
Salmonella enterica
  MIC: 0.33 µM (≈ 0.192 µg/mL)
Shigella sonnei
  MIC: 0.25 µM (≈ 0.145 µg/mL)
[4]
  MIC: 6.7 µM (≈ 3.9 µg/mL)
Acinetobacter baumannii
  MIC: 128 µM (≈ 74.4 µg/mL)
Pseudomonas aeruginosa
  MIC: 16 µM (≈ 9.31 µg/mL)
Vibrio cholerae
  MIC: 13 µM (≈ 7.56 µg/mL)
Brucella anthropi
  MIC: 128 µM (≈ 74.4 µg/mL)
Bacillus subtilis
  MIC: 128 µM (≈ 74.4 µg/mL)
Listeria ivanovii
  MIC: 4 µM (≈ 2.33 µg/mL)
Staphylococcus aureus [5]
  MIC: 2.7 µM (≈ 1.57 µg/mL)
Staphylococcus aureus [6]
  MIC: 9.3 µM (≈ 5.41 µg/mL)
[7]
  MIC: 2.7 µM (≈ 1.57 µg/mL)
Enterococcus faecium
  MIC: 16 µM (≈ 9.31 µg/mL)
Enterococcus faecalis
  MIC: 128 µM (≈ 74.4 µg/mL)
Streptococcus pneumoniae
  MIC: 48 µM (≈ 27.9 µg/mL)

## CN[C@H](C(=O)N[C@H](C(=O)N[C@@H]1C(=O)N(C)[C@@H]([C@@H](C)O)C(=O)N[C@@H](C(C)C)C(=O)N(C)[C@@H](CC(C)C)C(=O)N[C@@H](C(C)C)C(=O)N(C)[C@@H](CN)C(=O)N(C)[C@@H](Cc2c[nH]c3ccccc23)C(=O)N[C@@H](C(C)C)C(=O)N[C@@H](Cc2ccccc2)C(=O)N[C@@H](C(C)C)C(=O)O[C@@H]1C)C(C)C)C(C)C (H-[NMeV]VT[NMeT]V[NMeL]V[NMeDap][NMeW]VFV; ester 3-C)
[1]
  MIC: 2 µM (≈ 2.8 µg/mL)

## CN[C@H](C(=O)N[C@H](C(=O)N[C@@H]1C(=O)N(C)[C@@H]([C@@H](C)O)C(=O)N[C@@H](C(C)C)C(=O)N(C)[C@@H](CC(C)C)C(=O)N[C@@H](C(C)C)C(=O)N2CCCC[C@H]2C(=O)N(C)[C@@H](Cc2c[nH]c3ccccc23)C(=O)N[C@@H](C(C)C)C(=O)N[C@@H](Cc2ccccc2)C(=O)N[C@@H](C(C)C)C(=O)O[C@@H]1C)C(C)C)C(C)C (H-[NMeV]VT[NMeT]V[NMeL]V[Pip][NMeW]VFV; ester 3-C)
[1]
  MIC: 4 µM (≈ 5.64 µg/mL)

## CN[C@H](C(=O)N[C@H](C(=O)N[C@@H]1C(=O)N(C)[C@@H]([C@@H](C)O)C(=O)N[C@@H](C(C)C)C(=O)N(C)[C@@H](CC(C)C)C(=O)N[C@@H](C(C)C)C(=O)N2CCC[C@H]2C(=O)N(C)[C@@H](Cc2c[nH]c3ccccc23)C(=O)N[C@@H](C(C)C)C(=O)N[C@@H](Cc2ccccc2)C(=O)N[C@@H](C(C)C)C(=O)O[C@@H]1C)C(C)C)C(C)C (H-[NMeV]VT[NMeT]V[NMeL]VP[NMeW]VFV; ester 3-C)
[1]
  MIC: 8 µM (≈ 11.2 µg/mL)
